Source: patent US20260015581A1, “METHODS FOR THE PRODUCTION OF RETINAL CELLS” (MIAMI UNIVERSITY, priority 2018, published 2026)

System: PGP1-derived RPE
Test: Small molecule screen for reprogramming of PGP1-derived RPE to neural retina (induction of fluorescent reporter expression)
Details: 40 μM; D0, D5 and D10 of treatment (FIG. 21)
Description: A second small molecule screen tested 180 compounds at a concentration of 40 μM designed to target epigenetic pathways (from the Selleck Chemicals Epigenetic Compounds Library L1900).

| Compound | subsequent induction of eGFP expression (retinal ganglion cell reporter) in PGP1-derived RPE |
| --- | --- |
| BI 847325 | subsequently induces the expression of eGFP |

Same assay, conditions: Selleck Chemicals Epigenetic Compounds Library L1900; 40 μM

| Compound | induction of Cerulean expression in PGP1-derived RPE |
| --- | --- |
| CN1CCN(c2ccc(-c3cccc(CN4CCOCC4)c3)cc2NC(=O)c2c[nH]c(=O)cc2C(F)(F)F)CC1 [OICR-9429] | showed evidence of inducing Cerulean expression |
| BI 847325 | showed evidence of inducing Cerulean expression |
| C1=C/COCc2cc(ccc2OCCN2CCCC2)Nc2nccc(n2)-c2cccc(c2)COC/1 [Pacritinib] | showed evidence of inducing Cerulean expression |
| Cc1c(CN2CCC(Nc3ncnc4sc(CC(F)(F)F)cc34)CC2)ccc2[nH]c(C#N)cc12 [MI 463] | showed evidence of inducing Cerulean expression |
| CN(C)CCCNC(=O)c1ccc(-c2cc(O)c3ncccc3c2)cc1 [ML324] | showed evidence of inducing Cerulean expression |
| O=C(O)c1ccc(O)c2ncccc12 [Carboxy-8-hydroxyquinoline] | showed evidence of inducing Cerulean expression |
| COc1cc2c(Nc3ccc(NC(=O)c4ccccc4)cc3)ncnc2cc1OCCCN1CCOCC1 [ZM 447439] | showed evidence of inducing Cerulean expression |
| CCn1cc(-c2cccc(C(F)(F)F)c2)c2sc(C(=N)NC3CCS(=O)(=O)CC3)cc2c1=O [I-BRD9] | showed evidence of inducing Cerulean expression |
| O=C(Nc1ccccc1-c1cn2c(CN3CC[C@@H](O)C3)csc2n1)c1ccc2ccccc2c1 [SSRT2183] | showed evidence of inducing Cerulean expression |

Same assay, conditions: first library of 127 compounds; 5-15 days of treatment; at least 9 different replicates; U0126 39 μM, SC 79 110 μM, KU 0063794 3 μM

| Compound | induction of Cerulean expression (blue fluorescent cells) in PGP1-derived RPE |
| --- | --- |
| CCOC(=O)C1=C(N)Oc2ccc(Cl)cc2C1C(C#N)C(=O)OCC (stereo not shown) [SC 79] | produced blue fluorescent cells |
| N#CC(=C(/N)Sc1ccccc1N)/C(C#N)=C(\N)Sc1ccccc1N [U0126] | produced blue fluorescent cells |
| COc1ccc(-c2ccc3c(N4CCOCC4)nc(N4C[C@@H](C)O[C@@H](C)C4)nc3n2)cc1CO [KU 0063794] | produced blue fluorescent cells |
